In patent publication US10709764B2, “Use of compounds with thrombopoietic activity to promote bone growth and healing” (Osteofuse, Inc., priority 2010, dated 2020):

Tests used:
[1] = system: C57BL/6 bone marrow macrophages (BMMs); experiment: Osteoclast formation from bone marrow macrophages cultured with M-CSF and RANKL, TRAP staining; type: cell-based, mouse
Method: FIG. 2. Bar graph showing C57BL/6 bone marrow macrophages (BMMs) were cultured with M-CSF (30 ng/ml) and RANKL (50 ng/ml). While culturing C57BL/6 BMMs with M-CSF and RANKL (no TPO) results in the generation of mature TRAP^+ multinucleated osteoclasts (OCs) (>3 nuclei), culturing these cells with TPO (0.1-100 ng/ml) enhances the number OCs by >2-fold. *p<0.05
FIG. 3A. Representative micrograph of cultures of BMMs stimulated with M-CSF (30 ng/ml) and RANKL (50 ng/ml).
FIG. 3B. Representative micrograph of cultures of BMMs stimulated with M-CSF (30 ng/ml) and RANKL (50 ng/ml).

[2] = system: critical sized defect in the rat femur; experiment: Long Evans rat femur gap model, scaffold in 5 mm segmental defect; type: in vivo, Long Evans rats
Source text: A pilot study utilizing the Long Evans rat femur gap model which has been approved by the Laboratory Animal Care and Usage Committee (IACUC) at Indiana University was used to test a new method for repairing bone gaps. In brief, tube shape scaffolds with 4 mm external diameter, 2 mm internal diameter and 5 mm in height were manufactured from poly(propylene) fumarate/tricalcium phosphate. […] In the control group, the scaffolds were left untreated (n=3/group). Segmental defects of 5 mm were created in the right femurs of male Long Evans rats. The defect was filled with a 5 mm scaffold and secured with an intramedullary K-wire placed in retrograde fashion. Femurs were imaged by x-ray to assure proper placement and integrity of the scaffold. The rats were then imaged using x-ray at three week intervals to assess continued healing. At post-operative weeks 6 and 15, rats were euthanized and femurs analyzed by x-ray, microCT, and histology.
At 15 weeks, mineralized callus was seen bridging the two bone ends. In some areas adjacent to the scaffolds, isolated patches of cartilage with hypertrophic chondrocytes were observed, indicating the tissues were undergoing endochondral bone formation.

[3] = system: critical sized femoral defect; experiment: Mouse critical sized femoral defect with scaffold, x-ray follow-up; type: in vivo, C57BL/6 male mice
Source text: A critical sized femoral defect was created in the right femur of ten-week old C57BL/6 male mice. Our scaffold was inserted into the defect site. […] Referring now to FIG. 6, a critical sized femoral defect was created in the right femur of ten week old C57BL/6 male mice. A scaffold was inserted into the defect site.

thrombopoietin [TPO]
mature multinucleated OCs developed (TRAP staining) ([1]; TPO 100 ng/ml, M-CSF 30 ng/ml, RANKL 50 ng/ml): Significantly more OCs developed | enhancement of the number of mature TRAP+ multinucleated osteoclasts (OCs) ([1]; TPO 0.1-100 ng/ml, M-CSF 30 ng/ml, RANKL 50 ng/ml, vs no TPO, p<0.05): > 2 fold | increase of osteoclastogenesis ([1]; osteoclast progenitors treated with TPO in vitro): up to 5 fold | healing of critical sized defect (microCT) ([2]; 10 μg in scaffold, post-operative week 15, n=3/group): robustly healed | cortex and trabeculae of the callus compared to callus induced by BMP-2 ([2]; 10 μg in scaffold, week 15, BMP-2 from an earlier study): thicker | remodeling compared with BMP-2 ([2]; 15 weeks post-operative, μCT (FIG. 5)): more extensive remodeling | bridging callus formation (x-ray) ([3]; 2 weeks postoperatively, TPO 1 μg, BMP-2 4 μg in scaffold): remain unbridged | bridging callus formation (x-ray) ([3]; 4-6 weeks postoperatively, TPO 1 μg in scaffold): have bridged | restoration of bone contour compared with BMP-2 scaffolds ([3]; 4-6 weeks, TPO 1 μg vs BMP-2 4 μg): better restores the original contour of the bone
